These results are taken from article PMC6150385, “The Blood-Brain Barrier Permeability of Six Indole Alkaloids from Uncariae Ramulus Cum Uncis in the MDCK-pHaMDR Cell Monolayer Model” (Molecules : A Journal of Synthetic Chemistry and Natural …, 2017).

For series [1], the system named is MDCK-pHaMDR cell monolayer. The note with it: for intracellular accumulation rates: dog, MDCK-MDR1, 90 min, 40 µM; for BBB permeability classification: MDCK-MDR1.
Series [2] is described as follows: Stability of QC samples after three freeze-thaw cycles (HPLC). It is filed as physicochemical. The following applies: three freeze (−20 °C)-thaw cycles, percentage remains. Here is the method: The stock solutions of the six alkaloids were diluted to three concentrations (low, medium and high) as quality control (QC) samples. Accuracy, precision and stability of QC samples were validated. Accuracy and intraday precision were evaluated by determining the QC samples in three replicates on the same day, while interday precision was assessed by repeated analysis of the same QC samples over three consecutive days. Precision was estimated by RSD, which should not exceed 15%. Accuracy was assessed by comparison of the calculated mean concentrations with the spiked concentrations, and the acceptable range should be within 85–115%. The absolute recoveries of six alkaloids were determined by comparing the peak areas of analytes in QC samples with those of the standard solutions in MeOH with equivalent concentrations.

Series [3] in a line: Bidirectional transport across MDCK-pHaMDR cell monolayer (in vitro BBB model). The following applies: dog; for recovery at 90 min, 40 µM: MDCK-MDR1, Recovery Rate.
Series [4] can be described thus: in vitro. The following applies: dog.
Series [5] has as its system MDCK-pHaMDR cell monolayer. Put plainly: Bidirectional transport across MDCK-pHaMDR cell monolayer (in vitro BBB model). The note with it: for Intracellular Accumulation / Efflux Ratio (Papp BL→AP/Papp AP→BL): 40 μM, 90 min; for transport mechanism: time- (30–180 min) and concentration- (20–120 μM) dependence.
Series [6] concerns P-gp. The series can be described thus: Transport in the presence and absence of verapamil (P-gp function / verapamil inhibition of efflux) in MDCK-pHaMDR cell monolayer. Here is the method: The cell monolayers were washed twice with prewarmed HBSS before the experiments were carried out. The HBSS medium in the AP side (0.5 mL, for absorption transport) or BL side (1.5 mL, for efflux transport) was replaced with different test compounds. The plates were shaken at 55 rpm for 90 min at 37 °C in a water bath. Samples were quantitatively collected from both sides of the cell monolayer, immediately frozen, lyophilized, and then preserved below −20 °C. To measure the intracellular amounts, the cell monolayers were lyophilized after three freeze (−20 °C)–thaw (room temperature) cycles and preserved below –20 °C. […] The tested concentrations of alkaloids 1–6 were 40 µM. The function of P-gp were tested by the transport of Rh123 at 10 µM in the presence and absence of verapamil (100 µM) undertaken as described above.
The verapamil inhibition experiment was carried out for alkaloids 1 and 3. The cells were pre-incubated with 100 µM of verapamil for 30 min before drug transport assays. Then verapamil was added to both sides, and 40 µM of test alkaloid was added to AP or BL side.
Papp in AP→BL or BL→AP direction of each alkaloid was calculated based on the following equation:Papp = dQ/dt/A/C0 (cm/s) where Q is the accumulation quantity of the alkaloid in the receiver side (μmol), dQ/dt is the linear appearance rate of the alkaloid in the receiver side (μmol/s), C0 is the initial concentration in the donor side (µM), and A is the membrane surface area (cm^2). All of the experiments were conducted in six duplications and data were expressed as the mean ± SD.

Where [7] appears, read: MDCK-MDR1, Papp AP→BL, 40 μM, 90 min.
The mark [8] stands for this setting: dog, MDCK-MDR1, with verapamil 100 µM.

Structures are written as SMILES. A value given as a limit tells only on which side of the number the result lay.

Broadly, the efflux ratio is a quotient of directional permeabilities that is used to spot active efflux. In general, Papp A→B refers to the apparent permeability from the apical to the basolateral side of a cell layer. As usually defined, the Papp B→A is the apparent permeability from the basolateral to the apical side of a cell layer. For orientation: Papp means the rate of passage across a membrane or cell layer, normalised by area and donor concentration. Read a low Papp as poor permeation. Take `C=C[C@H]1CN2CC[C@@]3(C(=O)Nc4ccccc43)[C@@H]2C[C@@H]1/C(=C\OC)C(=O)OC` [alkaloid 4, isocorynoxeine]: the intracellular accumulation rates entry in series [1] is reported as “less than 0.4%”. Besides, the Stability is given as 107.15 ± 5.06% in series [2] (QC sample 5 μM), 102.72 ± 1.97% in series [2] (QC sample 60 μM) and 102.02 ± 2.43% in series [2] (QC sample 120 μM). Further, the efflux ratio at 90 min, 40 µM in series [3] (MDCK-MDR1, Efflux Ratio (Papp BL→AP/Papp AP→BL), 40 μM, 90 min) was under 2. Also, the recovery at 90 min, 40 µM was found to be 93 ± 1.4% in series [3] (AP→BL, 40 μM, 90 min) and 98.47 ± 0.82% in series [3] (BL→AP, 40 μM, 90 min). The molecule also showed a Papp A→B at 90 min, 40 µM in series [4] (MDCK-MDR1) of 11.1 ± 1.49 ×10⁻⁶ cm/s. The same molecule had a Papp B→A at 90 min, 40 µM in series [4] (MDCK-MDR1) of 20.7 ± 1.03 ×10⁻⁶ cm/s. This molecule also yielded a Papp at 90 min, 40 µM in series [4] (MDCK-MDR1) of about 10 ×10⁻⁶ cm/s.

On to `CC[C@H]1CN2CC[C@]3(C(=O)Nc4ccccc43)[C@@H]2C[C@@H]1/C(=C\OC)C(=O)OC` [alkaloid 1, rhynchophylline], for which the BBB permeability classification entry in series [1] is on record as “moderate permeability”. In addition, the Stability was 96.32 ± 3.30% in series [2] (QC sample 5 μM), 96.86 ± 4.64% in series [2] (QC sample 60 μM) and 102.59 ± 3.38% in series [2] (QC sample 120 μM). In addition, the “Intracellular Accumulation” value amounted to 0.36 ± 0.05% in series [5] (AP→BL) and 0.40 ± 0.04% in series [5] (BL→AP). The recovery at 90 min, 40 µM in series [3] (AP→BL, 40 μM, 90 min) came to 99.9 ± 1.15%; in series [3] (BL→AP, 40 μM, 90 min) it was 102.2 ± 0.47%. In addition, the Papp A→B at 90 min, 40 µM in series [6] (dog, MDCK-MDR1) stood at 22.2 ± 6.41 ×10⁻⁶ cm/s. This molecule showed an apparent permeability from basolateral to apical (Papp B→A) at 90 min, 40 µM in series [6] (dog, MDCK-MDR1) of 18.1 ± 1.09 ×10⁻⁶ cm/s. In addition, the P-gp substrate status result in series [6] (from verapamil (100 µM) inhibition of efflux) is recorded as “substrates of P-gp”. For the same molecule, the Papp B→A in series [4] (MDCK-MDR1) turned out to be 42.3 ± 2.48 ×10⁻⁶ cm/s. In addition, the Papp A→B was about 1 ×10⁻⁶ cm/s in series [4] (MDCK-MDR1, Papp AP→BL (level), AP side to BL side) and 4.37 ± 0.37 ×10⁻⁶ cm/s in series [4] (setting [7]).

`Cn1c(=O)c2c(ncn2C)n(C)c1=O` [caffeine, reference compound] returned a Papp at 90 min in series [3] (MDCK-MDR1) of 30 ×10⁻⁶ cm/s.

Regarding `C=C[C@H]1CN2CC[C@]3(C(=O)Nc4ccccc43)[C@@H]2C[C@@H]1/C(=C\OC)C(=O)OC` [alkaloid 3, corynoxeine], in series [1], the BBB permeability classification result is “moderate permeability”. The intracellular accumulation rates result in series [1] was “less than 0.4%”. The figures for the Stability in series [2] (QC sample 5 μM), in series [2] (QC sample 60 μM) and in series [2] (QC sample 120 μM) were 106.67 ± 5.82%, 102.37 ± 1.65% and 101.52 ± 2.26%, respectively. The “Efflux Ratio (Papp BL→AP/Papp AP→BL)” value in series [5] was 40.94; in series [5] (listed as corynoxeine (3)), “above 2”. Also, the recovery at 90 min, 40 µM in series [3] (AP→BL, 40 μM, 90 min) came out at 96.4 ± 1.17%; in series [3] (BL→AP, 40 μM, 90 min) it was 99.6 ± 1.57%. The Papp A→B at 90 min, 40 µM in series [6] (dog, MDCK-MDR1) was determined as 17.2 ± 2.45 ×10⁻⁶ cm/s; in series [4] (MDCK-MDR1) it was 1.21 ± 0.14 ×10⁻⁶ cm/s. Also, the Papp B→A at 90 min, 40 µM amounted to 17.5 ± 0.82 ×10⁻⁶ cm/s in series [6] (dog, MDCK-MDR1) and 49.7 ± 4.71 ×10⁻⁶ cm/s in series [4] (MDCK-MDR1). Further, the efflux ratio at 90 min, 40 µM in series [6] (dog, MDCK-MDR1, with verapamil 100 µM, Efflux Ratio (Papp BL→AP/Papp AP→BL), 40 μM alkaloid with 100 μM verapamil, 90 min) is under 2. The molecule further registered a Papp A→B in series [4] (MDCK-MDR1) of about 1 ×10⁻⁶ cm/s.

Turning to `COC(=O)c1ccccc1-c1c2ccc(=N)cc-2oc2cc(N)ccc12` [Rh123, Rhodamine 123, reference compound], the Papp A→B at 90 min, 10 µM in series [6] (dog, MDCK-MDR1) came to 0.843 ± 0.195 ×10⁻⁶ cm/s; in series [6] (setting [8]) it was 1.27 ± 0.213 ×10⁻⁶ cm/s. Also, the Papp B→A at 90 min, 10 µM was determined as 5.8 ± 0.259 ×10⁻⁶ cm/s in series [6] (dog, MDCK-MDR1) and 1.71 ± 0.099 ×10⁻⁶ cm/s in series [6] (setting [8]). The efflux ratio at 90 min, 10 µM in series [6] (dog, MDCK-MDR1, Efflux Ratio (Papp BL→AP/Papp AP→BL), Rh123 10 μM, 90 min, absence of verapamil) was found to be 6.88; in series [6] (dog, MDCK-MDR1, with verapamil 100 µM, Efflux Ratio (Papp BL→AP/Papp AP→BL), Rh123 10 μM with 100 μM verapamil, 90 min), 1.34.

`C=C[C@H]1CN2CCc3c([nH]c4ccccc34)[C@H]2C[C@@H]1/C(=C\OC)C(=O)OC` [alkaloid 6, hirsuteine]: the values for the Stability in series [2] (QC sample 5 μM), in series [2] (QC sample 60 μM) and in series [2] (QC sample 120 μM) were 106.89 ± 3.01%, 103.80 ± 5.92% and 102.23 ± 4.19%, respectively. Also, the recovery at 90 min, 40 µM in series [3] (AP→BL, 40 μM, 90 min) stood at 88.9 ± 5.99%; in series [3] (BL→AP, 40 μM, 90 min), 104 ± 1.17%. The Papp A→B at 90 min, 40 µM in series [4] (MDCK-MDR1) turned out to be 14.9 ± 1.83 ×10⁻⁶ cm/s. Also, the Papp B→A at 90 min, 40 µM in series [4] (MDCK-MDR1) was found to be 11.3 ± 1.8 ×10⁻⁶ cm/s. In series [4] (MDCK-MDR1), this molecule displayed an apparent permeability (Papp) at 90 min, 40 µM of about 10 ×10⁻⁶ cm/s.

On to `CC[C@H]1CN2CC[C@@]3(C(=O)Nc4ccccc43)[C@@H]2C[C@@H]1/C(=C\OC)C(=O)OC` [alkaloid 2, isorhynchophylline], for which the Stability in series [2] (QC sample 5 μM) was 108.52 ± 1.08%; in series [2] (QC sample 60 μM), 100.08 ± 2.26%; in series [2] (QC sample 120 μM) it was 105.21 ± 3.28%. For the same molecule, the results for the “Intracellular Accumulation” value in series [5] (AP→BL) and in series [5] (BL→AP) were 0.24 ± 0.04% and 0.37 ± 0.06%, respectively. The transport mechanism entry in series [5] is “passive diffusion”. Also, the recovery at 90 min, 40 µM in series [3] (AP→BL, 40 μM, 90 min) worked out at 94.3 ± 1.43%; in series [3] (BL→AP, 40 μM, 90 min) it was 101 ± 1.89%. The molecule further returned a Papp in series [4] (MDCK-MDR1) of about 10 ×10⁻⁶ cm/s. Besides, in series [4] (MDCK-MDR1), the Papp B→A is 27.7 ± 0.93 ×10⁻⁶ cm/s. In series [4] (setting [7]), this molecule showed a Papp A→B of 17.7 ± 1.2 ×10⁻⁶ cm/s.

Regarding `CC[C@H]1CN2CCc3c([nH]c4ccccc34)[C@H]2C[C@@H]1/C(=C\OC)C(=O)OC` [alkaloid 5, hirsutine], the Stability was 106.1 ± 3.57% in series [2] (QC sample 5 μM), 101.9 ± 6.51% in series [2] (QC sample 60 μM) and 100.5 ± 4.86% in series [2] (QC sample 120 μM). Besides, in series [5] (BL→AP), the “Intracellular Accumulation” value worked out at 6.19 ± 0.73%. For the same molecule, the transport mechanism result in series [5] is “passive diffusion”. The recovery at 90 min, 40 µM in series [3] (AP→BL, 40 μM, 90 min) was 89.3 ± 6.15%; in series [3] (BL→AP, 40 μM, 90 min) it was 104 ± 1.94%. In series [4] (MDCK-MDR1), this molecule registered a Papp of about 10 ×10⁻⁶ cm/s. In series [4] (MDCK-MDR1), this molecule gave a Papp B→A of 14.1 ± 0.73 ×10⁻⁶ cm/s. In series [4] (setting [7]), this molecule gave a Papp A→B of 15.1 ± 1.32 ×10⁻⁶ cm/s.
